Values quoted from earlier work as cited in patent US8882743B2, “Apparatus and method for application of a pharmaceutical to the tympanic membrane for photodynamic laser myringotomy” (priority 2006, dated 2014).

Tested on: tympanic membrane
Conditions: lance myringotomy with concomitant mitomycin-C versus myringotomy without mitomycin-C

CO[C@@]12[C@H](COC(N)=O)C3=C(C(=O)C(C)=C(N)C3=O)N1C[C@@H]1N[C@@H]12 [mitomycin-C]
time required for closure of the fistulae formed: statistically significant increase
